Source: PubChem BioAssay (NCI)
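Each compound was tested at five concentrations against cells in 96-well plates for 48 hours. GI50: concentration for 50% inhibition of growth. TGI denotes the concentration required for complete inhibition of growth.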

Columns and labels:
Test in all cases: NCI-60 cell line screen, 48 h
[1] = tested on: MOLT-4 leukemia
[2] = tested on: TK-10 renal
[3] = tested on: SK-MEL-28 melanoma
[4] = tested on: HS 578T breast
[5] = tested on: OVCAR-4 ovarian
[6] = tested on: KM12 colon
[7] = tested on: PC-3 prostate
[8] = tested on: SW-620 colon
[9] = tested on: ACHN renal
[10] = tested on: OVCAR-5 ovarian
[11] = tested on: SF-539 CNS
[12] = tested on: CAKI-1 renal
[13] = tested on: BT-549 breast
[14] = tested on: MALME-3M melanoma
[15] = tested on: MDA-MB-435
[16] = tested on: MDA-MB-231 breast
[17] = tested on: UACC-257 melanoma
[18] = tested on: SN12C renal
[19] = tested on: HOP-62 NSCLC
[20] = tested on: MDA-MB-468 breast
[21] = tested on: K-562 leukemia
[22] = tested on: U251 CNS
[23] = tested on: SF-295 CNS
[24] = tested on: OVCAR-3 ovarian
[25] = tested on: NCI/ADR-RES ovarian
[26] = tested on: 786-0 renal
[27] = tested on: DU-145 prostate
[28] = tested on: RXF 393 renal
[29] = tested on: NCI-H522 lung
[30] = tested on: UACC-62 melanoma
[31] = tested on: SF-268 CNS
[32] = tested on: NCI-H226 lung
[33] = tested on: HOP-92 NSCLC
[34] = tested on: NCI-H23 lung
[35] = tested on: COLO 205 colon
[36] = tested on: RPMI-8226 leukemia
[37] = tested on: HCC-2998 colon
[38] = tested on: SR leukemia
[39] = tested on: HCT-15 colon
[40] = tested on: OVCAR-8 ovarian
[41] = tested on: CCRF-CEM leukemia
[42] = tested on: A549 NSCLC
[43] = tested on: HCT-116 colon
[44] = tested on: M14 melanoma
[45] = tested on: SK-MEL-5 melanoma
[46] = tested on: EKVX NSCLC
[47] = tested on: IGROV1 ovarian
[48] = tested on: A498 renal
[49] = tested on: SK-MEL-2 melanoma
[50] = tested on: T-47D breast
[51] = tested on: SNB-19 CNS
[52] = tested on: SNB-75 CNS
[53] = tested on: MCF7 breast
[54] = tested on: UO-31 renal
[55] = tested on: HL-60(TB) leukemia
[56] = tested on: SK-OV-3 ovarian
[57] = tested on: NCI-H460 lung
[58] = tested on: HT29 colon
[59] = tested on: LOX IMVI melanoma

O=C1CCC(N2C(=O)c3cccc(NCCCCCC(=O)N4CCN(c5ccc6nc7c(nc6c5C(F)(F)F)C(=O)c5ncccc5C7=O)CC4)c3C2=O)C(=O)N1 (configuration not stated)
GI50 [1]: 1500 nM
TGI [1]: > 17800 nM
GI50 [2]: 1920 nM
TGI [2]: 5670 nM
GI50 [3]: 386 nM
TGI [3]: 1290 nM
GI50 [4]: 946 nM
TGI [4]: 3920 nM
GI50 [5]: 1490 nM
TGI [5]: 4830 nM
GI50 [6]: 1430 nM
TGI [6]: 3590 nM
GI50 [7]: 376 nM
TGI [7]: > 19000 nM
GI50 [8]: 368 nM
TGI [8]: 1810 nM
GI50 [9]: 1090 nM
TGI [9]: 2530 nM
GI50 [10]: 1010 nM
TGI [10]: 2170 nM
GI50 [11]: 1000 nM
TGI [11]: 1950 nM
GI50 [12]: 889 nM
TGI [12]: 2200 nM
GI50 [13]: 244 nM
TGI [13]: 1460 nM
GI50 [14]: 76.2 nM
TGI [14]: 541 nM
GI50 [15]: 555 nM
TGI [15]: 1540 nM
GI50 [16]: 23.4 nM
TGI [16]: 2500 nM
GI50 [17]: 1060 nM
TGI [17]: 2170 nM
GI50 [18]: 192 nM
TGI [18]: 738 nM
GI50 [19]: 321 nM
TGI [19]: 1400 nM
GI50 [20]: 1180 nM
TGI [20]: 2680 nM
GI50 [21]: 1010 nM
TGI [21]: > 70500 nM
GI50 [22]: 177 nM
TGI [22]: 577 nM
GI50 [23]: 150 nM
TGI [23]: 384 nM
GI50 [24]: 1190 nM
TGI [24]: 3210 nM
GI50 [25]: 2070 nM
TGI [25]: 20800 nM
GI50 [26]: 1590 nM
TGI [26]: 4580 nM
GI50 [27]: 163 nM
TGI [27]: 398 nM
GI50 [28]: 981 nM
TGI [28]: 2060 nM
GI50 [29]: 1020 nM
TGI [29]: 2200 nM
GI50 [30]: 529 nM
TGI [30]: 1540 nM
GI50 [31]: 1360 nM
TGI [31]: 5050 nM
GI50 [32]: 160 nM
TGI [32]: 1100 nM
GI50 [33]: 1200 nM
TGI [33]: 5810 nM
GI50 [34]: 138 nM
TGI [34]: 315 nM
GI50 [35]: 175 nM
TGI [35]: 475 nM
GI50 [36]: 741 nM
TGI [36]: 4540 nM
GI50 [37]: 275 nM
TGI [37]: 1040 nM
GI50 [38]: 227 nM
TGI [38]: > 70500 nM
GI50 [39]: 81.9 nM
TGI [39]: 813 nM
GI50 [40]: 1300 nM
TGI [40]: 3670 nM
GI50 [41]: 1970 nM
TGI [41]: > 70500 nM
GI50 [42]: 193 nM
TGI [42]: 712 nM
GI50 [43]: 1780 nM
TGI [43]: 4620 nM
GI50 [44]: 130 nM
TGI [44]: 292 nM
GI50 [45]: 296 nM
TGI [45]: 1040 nM
GI50 [46]: 1300 nM
TGI [46]: 3920 nM
GI50 [47]: 827 nM
TGI [47]: 1830 nM
GI50 [48]: 1200 nM
TGI [48]: 2290 nM
GI50 [49]: 1030 nM
TGI [49]: 2160 nM
GI50 [50]: 1560 nM
TGI [50]: 5290 nM
GI50 [51]: 149 nM
TGI [51]: 393 nM
GI50 [52]: 743 nM
TGI [52]: 1590 nM
GI50 [53]: 197 nM
TGI [53]: 705 nM
GI50 [54]: 892 nM
TGI [54]: 1810 nM
GI50 [55]: 919 nM
TGI [55]: > 18800 nM
GI50 [56]: 768 nM
TGI [56]: 2200 nM
GI50 [57]: 141 nM
TGI [57]: 287 nM

CN1CCN(C(=O)CCN(C(=O)Oc2cc3c(c4ccccc24)[C@H](CCl)CN3C(=O)c2cc3cc(OCCCN4CCC4)ccc3[nH]2)[C@H]2CCSSC2)CC1
GI50 [1]: 231 nM
TGI [1]: 1580 nM
GI50 [2]: 1560 nM
TGI [2]: 3570 nM
GI50 [58]: 211 nM
TGI [58]: 963 nM
GI50 [3]: 208 nM
TGI [3]: 502 nM
GI50 [4]: 1230 nM
TGI [4]: 3170 nM
GI50 [5]: 1360 nM
TGI [5]: 2780 nM
GI50 [6]: 308 nM
TGI [6]: 1510 nM
GI50 [7]: 378 nM
TGI [7]: 2070 nM
GI50 [10]: 390 nM
TGI [10]: 1390 nM
GI50 [11]: 325 nM
TGI [11]: 1200 nM
GI50 [12]: 150 nM
TGI [12]: 509 nM
GI50 [13]: 1020 nM
TGI [13]: 2460 nM
GI50 [14]: 232 nM
TGI [14]: 745 nM
GI50 [15]: 285 nM
TGI [15]: 1170 nM
GI50 [16]: 402 nM
TGI [16]: 1450 nM
GI50 [17]: 378 nM
TGI [17]: 1810 nM
GI50 [18]: 527 nM
TGI [18]: 9020 nM
GI50 [19]: 146 nM
TGI [19]: 678 nM
GI50 [20]: 148 nM
TGI [20]: 442 nM
GI50 [21]: 225 nM
TGI [21]: 1590 nM
GI50 [22]: 100 nM
TGI [22]: 377 nM
GI50 [23]: 107 nM
TGI [23]: 291 nM
GI50 [24]: 426 nM
TGI [24]: 1880 nM
GI50 [26]: 330 nM
TGI [26]: 1140 nM
GI50 [27]: 165 nM
TGI [27]: 1250 nM
GI50 [28]: 189 nM
TGI [28]: 454 nM
GI50 [29]: 254 nM
TGI [29]: 1280 nM
GI50 [30]: 115 nM
TGI [30]: 294 nM
GI50 [31]: 281 nM
TGI [31]: 1630 nM
GI50 [32]: 148 nM
TGI [32]: 1160 nM
GI50 [33]: 997 nM
TGI [33]: 3640 nM
GI50 [34]: 65.7 nM
TGI [34]: 211 nM
GI50 [59]: 85.5 nM
TGI [59]: 314 nM
GI50 [35]: 431 nM
TGI [35]: 2260 nM
GI50 [36]: 570 nM
TGI [36]: 3870 nM
GI50 [37]: 146 nM
TGI [37]: 334 nM
GI50 [38]: 66.1 nM
TGI [38]: 906 nM
GI50 [39]: 209 nM
TGI [39]: 1350 nM
GI50 [40]: 136 nM
TGI [40]: 500 nM
GI50 [41]: 269 nM
TGI [41]: 3510 nM
GI50 [43]: 234 nM
TGI [43]: 1040 nM
GI50 [44]: 195 nM
TGI [44]: 653 nM
GI50 [45]: 152 nM
TGI [45]: 336 nM
GI50 [46]: 351 nM
TGI [46]: 1550 nM
GI50 [47]: 545 nM
TGI [47]: 2450 nM
GI50 [48]: 199 nM
TGI [48]: 386 nM
GI50 [49]: 345 nM
TGI [49]: 1060 nM
GI50 [50]: 570 nM
TGI [50]: 2400 nM
GI50 [51]: 272 nM
TGI [51]: 1650 nM
GI50 [52]: 497 nM
TGI [52]: 2320 nM
GI50 [53]: 49.5 nM
TGI [53]: 1430 nM
GI50 [54]: 190 nM
TGI [54]: 480 nM
GI50 [55]: 390 nM
TGI [55]: 2030 nM
GI50 [56]: 313 nM
TGI [56]: 7080 nM
